This passage reports GI50 and TGI results from PubChem BioAssay (NCI).

Test systems include T-47D breast; HS 578T breast; OVCAR-3 ovarian; SK-MEL-28 melanoma; SF-268 CNS; UACC-257 melanoma; RPMI-8226 leukemia; SW-620 colon; K-562 leukemia; SK-MEL-2 melanoma.
Holding throughout (experiment): NCI anticancer screen, dose series, 48 h

Several values for one entry are separate records, joined by “and”; a condition that tells them apart may be missing. Identical values can stand only once.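 Cultured in 96-well plates, cells were exposed to test compound for 48 hours across five concentrations. Here, GI50 denotes the concentration required for 50% inhibition of growth. TGI marks complete inhibition of growth.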 Where a SMILES comes first, the peptide text is derived from it. The star is where a group is joined. Trt = c1ccc(C(c2ccccc2)(c2ccccc2)*)cc1; Cbz = O=C(OCc1ccccc1)*

Turning to `Oc1ccc(Cl)cc1C(c1cc(Cl)ccc1O)C(Cl)(Cl)Cl`, the GI50 was 3.32 µM in the assay on T-47D breast; 1.81 µM with HS 578T breast; 1.92 µM with OVCAR-3 ovarian; 1.8 µM in the assay on SK-MEL-28 melanoma; 1.77 µM with SF-268 CNS; 2.68 µM with UACC-257 melanoma. The GI50 was 2.72 µM in the assay on RPMI-8226 leukemia, 1.73 µM with SW-620 colon, 2.28 µM in the assay with K-562 leukemia and 2.12 µM in the assay with SK-MEL-2 melanoma. In addition, the TGI with T-47D breast was 12.4 µM; in the assay with HS 578T breast, 4.45 µM; in the assay on OVCAR-3 ovarian it was 4.23 µM; in the assay on SK-MEL-28 melanoma it was 4.02 µM; in the assay with SF-268 CNS, 3.41 µM; with UACC-257 melanoma, 10.3 µM. Also, the TGI in the assay with RPMI-8226 leukemia was 8.4 µM; with SW-620 colon it was 3.3 µM; with K-562 leukemia it was 5.59 µM; in the assay with SK-MEL-2 melanoma it was 5.36 µM.

For the compound `CCCCN(CCCC)C(=O)[C@H](CC)[C@@H]1CC[C@@H](C)[C@@H]([C@H](C)[C@@H](O)[C@@H](C)C(=O)[C@H](CC)C2O[C@]3(C=C[C@@H](O)[C@]4(CC[C@@](C)([C@H]5CC[C@](O)(CC)[C@H](C)O5)O4)O3)[C@H](C)C[C@@H]2C)O1` (stereo partly specified), the GI50 was 2.34 µM in the assay on T-47D breast; 2.32 µM with HS 578T breast; 1.87 µM with OVCAR-3 ovarian; 4.21 µM with SK-MEL-28 melanoma; 3.17 µM in the assay on SF-268 CNS; 2.9 µM with UACC-257 melanoma. For the same compound, the GI50 was 1.79 µM in the assay on RPMI-8226 leukemia, 2.75 µM with SW-620 colon, 2.66 µM in the assay on K-562 leukemia and 2.67 µM in the assay with SK-MEL-2 melanoma. Moreover, the TGI in the assay with T-47D breast was 63.8 µM; in the assay with HS 578T breast, 7.83 µM; in the assay on OVCAR-3 ovarian, 4.84 µM; with SK-MEL-28 melanoma it was 81.1 µM; with SF-268 CNS, over 100 µM; in the assay with UACC-257 melanoma it was 9.71 µM. The TGI worked out at 5.85 µM in the assay on RPMI-8226 leukemia, 11.1 µM in the assay on SW-620 colon, 18.4 µM with K-562 leukemia and 7.53 µM with SK-MEL-2 melanoma.

For `Clc1nccc2c(-c3csc(-c4c[nH]c5ccc(Br)cc45)n3)c[nH]c12`, the GI50 was 3.12 µM in the assay on T-47D breast; 3.7 µM in the assay on HS 578T breast; 3.45 µM in the assay on OVCAR-3 ovarian; 1.85 µM in the assay with SK-MEL-28 melanoma; 4.06 µM in the assay with SF-268 CNS; 2.68 µM in the assay on UACC-257 melanoma. The GI50 in the assay with RPMI-8226 leukemia was 4.03 µM; in the assay with SW-620 colon it was 1.92 µM; with K-562 leukemia, 2.73 µM; with SK-MEL-2 melanoma, 4.09 µM. The TGI in the assay with T-47D breast turned out to be 18 µM; in the assay on HS 578T breast, 17.8 µM; in the assay on OVCAR-3 ovarian, 15 µM; with SK-MEL-28 melanoma it was 4.16 µM; in the assay with SF-268 CNS, 18 µM; with UACC-257 melanoma, 4.88 µM. In addition, the TGI came out at 39 µM with RPMI-8226 leukemia, 3.63 µM in the assay on SW-620 colon, 9.44 µM in the assay with K-562 leukemia and 16.4 µM in the assay with SK-MEL-2 melanoma.

Regarding `CCOCC1(COCC)CCC(c2[nH]ncc2CN(C)CCNC)CC1`, the GI50 with T-47D breast, in the assay on HS 578T breast, in the assay on OVCAR-3 ovarian, in the assay with SK-MEL-28 melanoma, in the assay on SF-268 CNS and in the assay with UACC-257 melanoma was over 100 µM in each case. For the same compound, the GI50 in the assay on RPMI-8226 leukemia was 19.8 µM; in the assay with SW-620 colon it was over 100 µM; in the assay with K-562 leukemia it was 28.8 µM; with SK-MEL-2 melanoma, over 100 µM. For the same compound, the TGI in the assay on T-47D breast, with HS 578T breast, with OVCAR-3 ovarian, in the assay on SK-MEL-28 melanoma, with SF-268 CNS and in the assay on UACC-257 melanoma was over 100 µM throughout. The TGI in the assay on RPMI-8226 leukemia, in the assay with SW-620 colon, in the assay with K-562 leukemia and in the assay on SK-MEL-2 melanoma was over 100 µM throughout.

Take `C=C1C(=O)O[C@H]2[C@H]1CC/C(COC(=O)c1cc(OC)c(OC)c(OC)c1)=C\CC[C@@]1(C)O[C@@H]21`: the GI50 in the assay on T-47D breast was 0.931 µM; in the assay with HS 578T breast it was 3.68 µM; in the assay on OVCAR-3 ovarian it was 0.39 µM; in the assay with SK-MEL-28 melanoma it was 1.59 µM; in the assay on SF-268 CNS it was 1.46 µM; with UACC-257 melanoma, 1.39 µM. Besides, the GI50 with RPMI-8226 leukemia is 0.422 µM; with SW-620 colon it was 0.355 µM; in the assay with K-562 leukemia it was 0.388 µM; in the assay on SK-MEL-2 melanoma, 1.6 µM. The TGI in the assay with T-47D breast is 3.54 µM; in the assay with HS 578T breast, 32.7 µM; in the assay with OVCAR-3 ovarian it was 1.44 µM; in the assay on SK-MEL-28 melanoma, 3.37 µM; in the assay on SF-268 CNS, 3.42 µM; in the assay on UACC-257 melanoma, 3.12 µM. Moreover, the TGI in the assay on RPMI-8226 leukemia turned out to be 2.34 µM; in the assay with SW-620 colon, 1.57 µM; in the assay with K-562 leukemia it was 11.5 µM; in the assay with SK-MEL-2 melanoma, 3.63 µM.

On to `CC(=O)OCC1OC(n2c(=S)n(-c3ccc([N+](=O)[O-])cc3)c(=O)c3ccccc32)C(OC(C)=O)C(OC(C)=O)C1OC(C)=O` (stereo unspecified), for which the TGI in the assay on T-47D breast was 74.3 µM; with HS 578T breast it was 68.5 µM; in the assay on OVCAR-3 ovarian, 47.5 µM and 49.8 µM; in the assay on SK-MEL-28 melanoma, > 82.5 µM and 59.7 µM; in the assay on SF-268 CNS, 62.1 µM and 44.7 µM; in the assay on UACC-257 melanoma, 38.1 µM and 97.3 µM. Further, the TGI in the assay with RPMI-8226 leukemia was 17.8 µM and > 100 µM; with SW-620 colon, over 100 µM; in the assay with K-562 leukemia it was over 100 µM; in the assay on SK-MEL-2 melanoma, 17.4 µM and 58.8 µM. In addition, the GI50 in the assay on OVCAR-3 ovarian was 20 µM; in the assay on SK-MEL-28 melanoma, 31 µM and 20.7 µM; in the assay with UACC-257 melanoma, 13 µM and 28.3 µM; with RPMI-8226 leukemia it was 4.41 µM and 19.9 µM; in the assay with SW-620 colon, 18 µM and 30.4 µM; in the assay on K-562 leukemia it was 10.7 µM and 27.2 µM. The GI50 in the assay with SK-MEL-2 melanoma is 12 µM and 22.5 µM.

For the compound `CC(=O)Nc1ccc(C(=O)CCl)cc1`, the GI50 was 2.68 µM with T-47D breast; 17.7 µM in the assay with HS 578T breast; 2.55 µM with OVCAR-3 ovarian; 2.49 µM with SK-MEL-28 melanoma; 13.9 µM with SF-268 CNS; 10.9 µM in the assay with UACC-257 melanoma. For the same compound, the GI50 is 2.95 µM in the assay with RPMI-8226 leukemia, 1.73 µM with SW-620 colon, 2.48 µM in the assay with K-562 leukemia and 13.3 µM with SK-MEL-2 melanoma. The TGI with T-47D breast came to 7.33 µM; with HS 578T breast, 80.5 µM; in the assay on OVCAR-3 ovarian, 5.82 µM; with SK-MEL-28 melanoma, 7.54 µM; in the assay on SF-268 CNS it was 29.5 µM; in the assay on UACC-257 melanoma, 23.3 µM. Moreover, the TGI in the assay with RPMI-8226 leukemia stood at 10 µM; with SW-620 colon, 3.38 µM; in the assay on K-562 leukemia, 5.88 µM; with SK-MEL-2 melanoma, 27.8 µM.

As to `CCOC(=O)[C@@H](C)C[C@H](Cc1ccccc1)NC(=O)c1csc([C@@H](C[C@H](C(C)C)N(C)C(=O)[C@@H](NC(=O)[C@H]2CCCCN2C)C(C)(C)CC)OC(C)=O)n1`, the GI50 in the assay with T-47D breast was under 0.00167 µM; in the assay on HS 578T breast, under 0.00167 µM; in the assay with OVCAR-3 ovarian, under 0.00167 µM; in the assay with SK-MEL-28 melanoma, 1.2 µM; in the assay on SF-268 CNS, 0.00278 µM; with UACC-257 melanoma, 0.0442 µM. In addition, the GI50 in the assay on RPMI-8226 leukemia, in the assay on SW-620 colon, with K-562 leukemia and in the assay on SK-MEL-2 melanoma was under 0.00167 µM each time. In addition, the TGI in the assay on T-47D breast was over 16.7 µM; in the assay with HS 578T breast, 2.17 µM; in the assay with SK-MEL-28 melanoma, over 16.7 µM; in the assay with SF-268 CNS, over 12.8 µM; with UACC-257 melanoma, over 16.7 µM; with RPMI-8226 leukemia, 4.18 µM. Further, the TGI with SW-620 colon, in the assay on K-562 leukemia and with SK-MEL-2 melanoma was over 16.7 µM throughout.

As for `NS(=O)(=O)c1ccc(Nc2cc(-c3ccc(O)c(F)c3)[nH]n2)cc1`, the GI50 was over 16.6 µM in the assay on T-47D breast; 7.28 µM with HS 578T breast; 9.43 µM with OVCAR-3 ovarian; over 25 µM with SK-MEL-28 melanoma; 10.3 µM in the assay on SF-268 CNS; over 25 µM in the assay on UACC-257 melanoma. The GI50 with RPMI-8226 leukemia is over 25 µM; in the assay with SW-620 colon it was over 25 µM; in the assay on K-562 leukemia, over 25 µM; with SK-MEL-2 melanoma, 11.4 µM. In addition, the TGI in the assay on T-47D breast, in the assay with HS 578T breast, with OVCAR-3 ovarian, with SK-MEL-28 melanoma, in the assay on SF-268 CNS and in the assay on UACC-257 melanoma was over 25 µM each time. The TGI with RPMI-8226 leukemia, in the assay with SW-620 colon, in the assay on K-562 leukemia and in the assay on SK-MEL-2 melanoma was over 25 µM throughout.

Turning to `COC(=O)C(CO)NC(=O)C(CSC(c1ccccc1)(c1ccccc1)c1ccccc1)NC(=O)OCc1ccccc1` (stereo unspecified) (Cbz-Cys(Trt)-Ser-OMe; configuration not given here), the TGI in the assay with T-47D breast is over 52 µM; in the assay with HS 578T breast, 47.9 µM; with OVCAR-3 ovarian, 28.6 µM; with SK-MEL-28 melanoma it was 34 µM; in the assay on SF-268 CNS, 44.9 µM; in the assay with UACC-257 melanoma, 25.6 µM. Further, the TGI is 5.55 µM in the assay on RPMI-8226 leukemia, 32.4 µM in the assay on SW-620 colon, over 49 µM with K-562 leukemia and 34.5 µM in the assay on SK-MEL-2 melanoma.
